These results are taken from article PMC6348924, “Detection of Active Caspase-3 in Mouse Models of Stroke and Alzheimer's Disease with a Novel Dual Positron Emission Tomography/Fluorescent Tracer [^68Ga]Ga-TC3-OGDOTA” (Contrast Media & Molecular Imaging, 2019).

The experiment relates to primary cortical neuronal cultures treated with CPT. The experiment in a line: Ga-TC3-OGDOTA accumulation in CPT toxicity assay. As to conditions: 10 μM CPT, 24 h. It counts as cell-based, mouse. On the procedure: For the in vitro cell culture studies, primary hippocampal and cortical neuronal cultures were prepared from E17 mouse embryos as described previously and cultured in regular neuronal medium (RNM) containing 1x B27, 0.5 mM glutamine, 0.25% glucose in Neurobasal medium (Invitrogen).
Three different conditions known to induce neuronal apoptosis were used to study Ga-TC3-OGDOTA uptake in cell culture: camptothecin (CPT) toxicity, OGD, and AβO toxicity. […] For the CPT toxicity assay, cortical neurons were treated with 0 (control) or 10 μM CPT (Sigma-Aldrich) for 24 h at normal conditions (5% CO2, 37°C). After that the cultures were washed with RNM and incubated with various concentrations of Ga-TC3-OGDOTA for 7 h, followed by either direct live imaging or fixation with 4% paraformaldehyde (PFA) in PBS for staining. […]
For coimaging of Hoechst 33342 (Hoechst), 4′,6′-Diamidino-2-Phenylindole (DAPI), Oregon Green and CC3, fixed cultures were immunostained with anti-CC3 antibody (1 : 500, Cell Signaling, cat#9661) followed by antirabbit secondary antibody and DAPI or Hoechst. […] Cells positive for tracer, CC3, and total number of cells were counted using the ImageJ (NIH, Bethesda, MD) Cell Counter plugin and their ratio was compared between the treatments.

In the case of `CC[C@@]1(O)C(=O)OCc2c1cc1n(c2=O)Cc2cc3ccccc3nc2-1` [CPT, camptothecin], the “effect on number of apoptotic neurons in the culture” value is “elevated”.
